Results taken from US20220064141A1, “BENZOPYRIDONE HETEROCYCLIC COMPOUND AND USE THEREOF” (BrightGene Bio-Medical Technology Co., Ltd., priority 2019, published 2022).

Tests used:
[1] = Safety by body weight change and animal deaths in the MIAPaCa-2 xenograft study; type: in vivo; settings: for Weight at the Initiation of Administration: baseline
Protocol: Experimental operation: BALB/c nude mice, female, 6- to 8-weeks old, weighing about 17.6 g to 21.1 g. Each mouse was subcutaneously inoculated with 5×10^6 MIAPaCa-2 cells (with Matrigel; the volume ratio was 1:1) in the right flank. The administration was initiated when the average tumor volume reached about 100 cubic millimeters. The test compounds were orally administered daily by intragastric injection (6 mice in each group) for a total of 16 or 23 days. Tumor volumes were measured three times a week. The volume was measured in cubic millimeters and calculated by the following formula: tumor volume (mm^3)=½×(a×b^2) (where a represented the long diameter and b represented the short diameter). The anti-tumor efficacy of the compound was evaluated by TGI (%).The calculation formula was as follows: TGI %=(1−T/C)×100% (T and C were the relative tumor volumes (RTV) of a mouse in the treatment group and a mouse in the control group at a specific time point), respectively. Safety was evaluated according to the changes of the body weight of the animals and animal deaths.

[2] = tested on: A549 human non-small cell lung cancer cells with high expression of KRAS G12S; assay: Cell Titer-Glo cell viability, A549 cells (72 h); type: cell-based
Excerpt: Effect Example 2: Pharmacodynamic Assay 2 (Determination of the efficacy of the compounds of the present disclosure on HCT116 human colon cancer cells with high expression of KRAS G13D and A549 human non-small cell lung cancer cells with high expression of KRAS G12S)
The following method was used to determine the effects of the compounds of the present disclosure on tumor cell proliferation.
For KRAS G13D subtype, HCT116 human colon cancer cell was used. For KRAS G12S subtype, A549 human non-small cell lung cancer cell was used. The efficacy of the compounds in inhibiting cancer cell viability was determined. HCT116 cells or A549 cells were cultured in a DMEM medium containing 10% fetal bovine serum, 100 U penicillin and […] streptomycin. The cells were cultured in an incubator with 5% CO2 at 37° C. Cancer cell viability was evaluated by determining the content of ATP with Cell Titer-Glo® kit (Luminescent Cell Viability Assay kit, please refer to the manufacturer's instructions for use) and evaluating the inhibition of cell growth.
The experimental method was proceeded in accordance with the steps in the instructions for the kit, and was described briefly as follows. The test compounds were first dissolved in DMSO to prepare stock solutions, and then the stock solutions were subjected to gradient dilution with the culture media of the corresponding cells, thereby preparing test samples. The final concentrations of the compounds were in the range of 30 μM to 0.01 nM. Tumor cells in logarithmic growth phase were seeded into a 96-well cell culture plate at an appropriate density. After the cell culture plate was left overnight in an incubator with 5% CO2 at 37° C., the test compound samples were added thereto and then the cells were further cultured for 72 hours. After the incubation was complete, an appropriate volume of Cell Titer-Glo® reagent was added into each well, and the cells were incubated at 37° C. for 1 to 4 hours. Then, the […] was read on a microplate reader. The percentage inhibition rates of the compounds at each concentration point were calculated by comparing the absorbance values of the sample wells with that of the control group (0.3% DMSO), and then non-linear regression analysis of the concentration of the compound vs inhibition rate was performed by using GraphPad Prism 5 software, thereby obtaining IC50 values indicating the inhibitory effects of the compounds on cell proliferation.

[3] = tested on: NCI-H358 human non-small cell lung cancer cell with KRAS G12C mutation; assay: Cell Titer-Glo cell viability, NCI-H358 cells (72 h); type: cell-based; settings: Homo sapiens, NCI-H358, 72 h, numeric values
How it was run: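 NCI-H358 (KRAS G12C) cells in DMEM with 10% FBS, seeded and left overnight at 37 °C, then treated 72 h with compound at 30 μM to 0.01 nM final. Viability from ATP content with Cell Titer-Glo after 1-4 h incubation at 37 °C; […].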

[4] = 30 mg/kg (Day 0 to Day 9) + 15 mg/kg (Day 10 to Day 16)
[5] = 100 mg/kg (Day 0 to Day 9) + 50 mg/kg (Day 10 to Day 16) + 100 mg (Day 17 to Day 23)

With `C=CC(=O)N1CCN(c2c(C#N)c(=O)n(-c3ccccc3C(C)C)c3cc(-c4c(C)ccc5[nH]ncc45)c(Cl)cc23)[C@@H](C)C1` (single isomer, unassigned) [Compound I-2-2] the “Weight Change Rate (%)” value [1, 4] was “+7.53%”, the “Weight on Day 23” value [1, 4] was 21.3 g and the “Weight Change Rate (%)” value [1, 5] was “+12.32%”. The “Weight on Day 23” value [1, 5] was 22.4 g, the “Weight at the Initiation of Administration” value [1, 4] was 19.8 g and the “Weight at the Initiation of Administration” value [1, 5] was 20.0 g. For the same compound, the IC50 [2] was > 3000 nM and the IC50 [3] was 50 nM.
